Data on 40 molecules can be found in ChEMBL document CHEMBL1132839, “Substituted 3-(2-benzoxazyl)-benzimidazol-2-(1H)-ones: a new class of GABA(A) brain receptor ligands” (Bioorg Med Chem Lett, 2000).

Where only a bound is given, the exact number is not on record here.

One assay addresses GABA-A receptor; anion channel. Nature of the assay: Binding affinity against GABA-A benzodiazepine receptor. It is filed as protein-complex assay.
Regarding `O=C1NC2CCCCCC2N1c1nc2ccc(F)c(F)c2o1` (stereo not given), the Ki – broadly, a measure of affinity in units of concentration, obtained from inhibition or displacement – came out at 0.003 µM. On the same count and under the same terms, to `O=C1NC2CCCCCC2N1c1nc2ccccc2o1` (stereo not given) belongs 0.008 µM; to `Oc1nc2ccccc2n1-c1nc2ccc(F)c(F)c2o1`, 0.02 µM.

In turn, `Oc1nc2c(n1-c1nc3ccc(F)c(F)c3o1)CCCC2` displayed a Ki of 0.021 µM. `Oc1nc2c(n1-c1nc3cccc(F)c3o1)CCCC2` gave an inhibition constant Ki of 0.052 µM. On the same count and under the same terms, to `O=C1NC2CCCCCC2N1c1nc2ncccc2o1` (stereo not given) belongs 0.137 µM; to `Oc1nc2cc(F)ccc2n1-c1nc2cccc(F)c2o1`, 0.014 µM.

In the case of `Cn1c(=O)n(-c2nc3ccccc3o2)c2ccccc21`, the Ki was > 10 µM. The same measure, in the same setting: to `Oc1nc2cc(F)ccc2n1-c1nc2ccc(F)cc2o1` belongs 0.025 µM. On the same count and under the same terms, to `Oc1nc2c(n1-c1nc3ccc(F)cc3o1)CCCC2` belongs 0.047 µM. The same measure, in the same setting: to `O=C1NC2CCCCC2N1c1nc2ncccc2o1` (stereo not given) belongs > 1 µM; to `Oc1nc2cc(F)ccc2n1-c1nc2ccccc2o1`, 0.032 µM; to `Oc1nc2ccc(F)cc2n1-c1nc2ccccc2o1`, 0.058 µM. Take `O=C1NC2CCCCCC2N1c1nc2cc(F)c(F)cc2o1` (stereo not given): the affinity, expressed as Ki, was 0.087 µM. The Ki values of the last two molecules are within 1.5-fold of each other. The same measure, in the same setting: to `O=C1NC2CCCCCC2N1c1nc2c(F)cc(F)cc2o1` (stereo not given) belongs 0.065 µM; to `Oc1nc2ccccc2n1-c1nc2ccccc2s1`, > 10 µM; to `O=C1NC2CCCCCC2N1c1nc2cc(F)cc(F)c2o1` (stereo not given), 0.007 µM. The molecule `O=C1NC2CCCCCC2N1c1nc2cccc(F)c2o1` (stereo not given) came in with a Ki of 0.005 µM. Same read-out and setting: to `Oc1nc2c(n1-c1nc3cc(F)ccc3o1)CCCC2` belongs 0.026 µM. On the same count and under the same terms, to `Oc1nc2ccccc2c2nc(-c3ccccc3)nn12` belongs 0.004 µM; to `Cc1ccc2oc(N3C(=O)NC4CCCCCC43)nc2c1` (stereo not given), 0.015 µM; to `Oc1nc2cccnc2n1-c1nc2ccccc2o1`, 0.723 µM. Same read-out and setting: to `Oc1nc2c(n1-c1nc3ccccc3o1)CCCC2` belongs 0.056 µM; to `COc1ccc2oc(N3C(=O)NC4CCCCCC43)nc2c1` (stereo not given), 0.025 µM; to `Oc1nc2ccc(F)cc2n1-c1nc2cccc(F)c2o1`, 0.015 µM. With `Cc1ccc2nc(-n3c(O)nc4ccccc43)oc2c1`, the affinity, expressed as Ki, was 0.303 µM.

As for `Oc1nc2ccccc2n1-c1nc2ncccc2o1`, the affinity, expressed as Ki, was 0.044 µM. This Ki is about 6.9-fold lower than that of the molecule before.

`Cc1ccc2nc(N3C(=O)NC4CCCCCC43)oc2c1` (stereo not given) displayed a Ki of 0.158 µM. Still for that read-out and setting: to `O=C1NC2CCCCCC2N1c1nc2ccc(F)cc2o1` (stereo not given) belongs 0.005 µM; to `O=C1NC2CCCCCC2N1c1nc2cc(F)ccc2o1` (stereo not given), 0.005 µM. The same measure, in the same setting: to `COc1ccc2oc(-n3c(O)nc4c3CCCC4)nc2c1` belongs 0.081 µM; to `COc1ccc2nc(-n3c(O)nc4c3CCCC4)oc2c1`, 0.239 µM; to `Oc1nc2ccccc2n1-c1nc2cc(F)ccc2o1`, 0.162 µM. On the same count and under the same terms, to `COc1ccc2nc(-n3c(O)nc4ccccc43)oc2c1` belongs 0.61 µM. As for `Oc1nc2ccccc2n1-c1nc2ccccc2o1`, the affinity corresponds to a Ki of 0.054 µM. The same measure, in the same setting: to `COc1ccc2nc(N3C(=O)NC4CCCCCC43)oc2c1` (stereo not given) belongs 0.254 µM; to `COc1ccc2oc(-n3c(O)nc4ccccc43)nc2c1`, 0.091 µM.

Regarding `Oc1nc2ccccc2n1-c1nc2ccc(F)cc2o1`, the affinity corresponds to a Ki of 0.089 µM. The same measure, in the same setting: to `Oc1nc2ccccc2n1-c1nc2cccc(F)c2o1` belongs 0.039 µM.

Another assay addresses GABA-A receptor; anion channel. Nature of the assay: Inhibition of GABA-A benzodiazepine receptor. It is filed as protein-complex assay.
For `O=C1NC2CCCCCC2N1c1nc2cc(Cl)ccc2o1` (stereo not given), half-maximal inhibition (IC50) was put at 0.14 µM. This counts as sub-micromolar.
